The results in this text go back to patent US6617343B1, “Hypoglycemic N,N-arylsulfonylglycine compounds” (Eli Lilly and Company, priority 1999, dated 2003).

The subject of series [1] is Male obese-diabetic viable yellow (AvY) mice. Put plainly: Hypoglycemic efficacy: blood glucose in obese-diabetic viable yellow mice fed compound admixed in chow. The format is in vivo. The conditions noted are these: dose .03 weight percent in diet; for % BG14 (BG0 = 100): blood glucose at day 14 as percent of initial value. Here is the method:
Male obese-diabetic viable yellow (AvY) mice were divided into two groups of 6 each. One group was fed repelletized purina 5008 Chow and the second group was fed repelletized Purina 5008 Chow, admixed with varying doses of the candidate compound. Blood samples were taken before the experiment was initiated and 7 and 14 days after initiation. Body weight and food consumption were monitored. The blood glucose level after 7 or 14 days of treatment was measured and recorded as a percent of the initial value, compared to the untreated control (first) group. The results are presented in the table 1 below; and include the dose of the candidate compound as a weight percent of the amount incorporated into the diet. Also in the table is a representative value for a positive control (a known hypoglycemic agent reported by a Takeda group [J. Med. Chem., 35, 2617]) administered in the same way as a canditate compound of the present invention.
BG means blood glucose level; BG0 means blood glucose level at day zero and BG14 means blood glucose level at day 14 accordingly.

With `CS(=O)(=O)N(CC(=O)O)c1ccc2oc(Cc3ccc4ccccc4c3)cc2c1` [Example 6, N-[5-(-2-(2-naphthylmethyl)benzofuranyl)]-N-methylsulfonylglycine], the melting point was 160 to 165 °C (dec.). Also, the “% BG14 (BG0 = 100), (day 7)” value in series [1] (blood glucose at day 7 as percent of initial value) was 93.1 (day 7) %.

For the compound `CN(C)S(=O)(=O)N(CC(=O)O)c1ccc(OCCc2coc(-c3ccccc3)n2)cc1` [Example 4, N-[4-(2-(Phenyloxazol-4yl)ethoxy)phenyl]-N-N′N′-dimethyl aminosulfonylglycine], the melting point lay in the range of 154 to 156 °C. In series [1], the “% BG14 (BG0 = 100)” value is listed as 70.1%.

`CC(C)S(=O)(=O)N(CC(=O)O)c1ccc(OCCc2coc(-c3ccccc3)n2)cc1` [Example 1, N-[4-(2-(Phenyloxazol-4yl)ethoxyl]phenyl)-N-isopropyl Sulfonylglycine]: the melting point fell in the range of 136 to 139 °C. The “% BG14 (BG0 = 100)” value in series [1] is 53.1%.

On to `CS(=O)(=O)N(CC(=O)[O-])c1ccc(OCCc2coc(-c3ccccc3)n2)cc1.[Na+]` [Example 3, Sodium N-(4-(2-Phenyl-4-oxazolylethoxy)phenyl)-N-methylsulfonylglycinate], for which, in series [1], the “% BG14 (BG0 = 100)” value is given as 57.9%.

Turning to `O=C(O)CN(c1ccc(OCCc2coc(-c3ccccc3)n2)cc1)S(=O)(=O)Cc1ccccc1` [Example 5, N-[4-(2-(phenyloxazol-4yl)ethoxy)phenyl]-N-phenylmethyl sulfonylglycine], the melting point fell in the range of 147 to 149 °C. The “% BG14 (BG0 = 100)” value in series [1] is given as 77.0%.

`CS(=O)(=O)N(CC(=O)O)c1ccc(OCCc2coc(-c3ccccc3)n2)cc1` [Example 2, N-4[-(2-(Phenyloxazol-4yl)ethoxy)phenyl]-N-methylsufonyl-glycine] gave a melting point of 200 to 201 °C. For the same compound, the “% BG14 (BG0 = 100)” value in series [1] is on record as 76.4%.

In general, melting point refers to the temperature of the solid-liquid transition.
